Results reported in patent US10800816B2 (Baxalta GmbH, priority 2012, dated 2020).
“Also recorded” adds a separate entry of the source. Where a SMILES comes first, the peptide text is derived from it. Bridges are numbered along the chain shown (N, C = ends). [ ]: non-standard residue; d: D form. Sar = CNCC(=O)O

Experiments:
[1] = test system: FVIII-inhibited whole blood; experiment: Rotation thromboelastography (ROTEM) in whole blood; set-up: species or system human; conditions: Hem A / FVIII-inhibited human whole blood
Experimental: Continuous visco-elastic assessment of human whole blood clot formation and firmness was performed by rotation thromboelastography with whole blood preparations in the presence or absence of peptides. […] Test samples were prepared by dissolving quantities of peptides in either DMSO or HEPES buffered saline (with or without 0.1% Tween 80).
Recordings were made using a ROTEM thromboelastography coagulation analyzer (Pentapharm, Munich, Germany) at 37° C. Briefly, blood is added into a disposable cuvette in a heated cuvette holder. A disposable pin (sensor) is fixed on the tip of a rotating axis. The axis is guided by a high precision ball bearing system and rotates back and forth. The axis is connected with a spring for the measurement of elasticity. The exact position of the axis is detected by the reflection of light on a small mirror on the axis. The loss of elasticity when the sample clots leads to a change in the rotation of the axis. The data obtained are computer analyzed and visualized in a thromboelastogram. […] An elasticity of approximately zero is observed before clot formation begins. Mirror image traces above and below the zero line indicate the effect of clot formation on the rotation of the axis.
The analytical set-up was as follows: to 20 μL of test sample or control, 300 μL of pre-warmed (37° C.) CTI treated citrated whole blood was added, followed by 20 μL of a 1:15 dilution of TF PRP reagent containing recombinant human tissue factor (rTF, 3 pM) (TS40, Thrombinoscope BV, Maastricht, The Netherlands). Coagulation was initiated by the addition of 20 μ200 mM CaCl2 (star-TEM®, Pentapharm, Munich, Germany) and recordings were allowed to proceed for at least 120 min. The final concentration of rTF in the assay was 11 or 44 fM.
The thromboelastographic parameters of clotting time (CT), clot formation time (CFT) and maximum clot firmness (MCF) were recorded in accordance with the manufacturer's instructions. CT is defined as the time from the start of measurement to the start of clot formation. CFT is defined as the time from the start of clot formation until an amplitude of 20 mm is reached. MCF is the maximum difference in amplitude between the two traces during the assay. The first derivative of the data of the thromboelastogram are plotted to obtain a graph of velocity (mm/s) against time (s). From this graph, the maximum velocity (maxV) is determined. The time at which the maximum velocity is obtained (maxV-t) is also determined.
This example describes a method for assessing clot formation in whole blood using rotation thromboelastography (ROTEM). The assay was performed as described in Example 8. The analytical set-up was as follows: 300 μL of pre-warmed (37° C.) CTI treated citrated whole blood was added to a peptide sample (10, 100, 1000 nM final assay concentration) or a control, followed by addition of a 1:15 dilution of TF PRP reagent containing recombinant human tissue factor (rTF, 3 pM) (TS40, Thrombinoscope BV, Maastricht, The Netherlands). In certain experiments, exogenous full length TFPI (flTFPI) at final concentrations of 2 or 10 nM was added to simulate flTFPI plasma levels of up to 50-fold over normal. Coagulation was initiated by the addition of 20 μL 200 mM CaCl2 (star-TEM®, Pentapharm, Munich, Germany) and recordings were allowed to proceed for at least 120 min. The final concentration of rTF in the assay was 44 fM. The thromboelastographic parameters of clotting time (CT), clot formation time (CFT) and maximum clot firmness (MCF) were recorded in accordance with the manufacturer's instructions. CT is defined as the time from the start of measurement to the start of clot formation. CFT is defined as the time from the start of clot formation until an amplitude of 20 mm is reached. MCF is the maximum difference in amplitude between the two traces during the assay.

in vitro = conditions: human, plasma
[2] = mouse, 24 h
TFPI [3] = experiment: FXa Inhibition assay | EC50 (µM)
TFPI [4] = experiment: % Inhibition @ 2.5µM
TFPI [5] = experiment: % Inhibition @ 0.63µM
[6] = test system: Tissue Factor Pathway Inhibitor (TFPI); experiment: IC50 ELISA | IC50 [nM]
Description: Table printed on a drawing sheet, FIGURE 78G
Head of the field: IC50 ELISA | IC50 [nM]

TFPI [7] = experiment: Extrinsic Tenase Inhibition assay | % Inhibition @ 2.5μM

Compound: CC(=O)N[C@@H](Cc1ccccc1)C(=O)N[C@@H](CCC(N)=O)C(=O)N[C@@H](CO)C(=O)N[C@@H](CCCCN)C(=O)N(C)CC(=O)N[C@@H](CC(N)=O)C(=O)N[C@H](C(=O)N[C@@H](Cc1ccccc1)C(=O)N[C@H](C(=O)N[C@@H](CC(=O)O)C(=O)NCC(=O)N[C@@H](Cc1ccc(O)cc1)C(=O)N[C@@H](Cc1ccccc1)C(=O)N[C@@H](CCC(=O)O)C(=O)N[C@@H](CCCNC(=N)N)C(=O)N[C@@H](CC(C)C)C(=O)N[C@@H](CCCNC(=N)N)C(=O)N[C@@H](C)C(=O)N[C@@H](CCCCN)C(=O)N[C@@H](CC(C)C)C(N)=O)C(C)C)C(C)C [JBT0717] (Ac-FQSK[Sar]NVFVDGYFERLRAKL-NH2)
- Plasma Stability (half life in minutes) human: >2 h

Compound: CC(=O)N[C@@H](Cc1ccccc1)C(=O)N[C@@H](CCC(N)=O)C(=O)N[C@@H](CO)C(=O)N[C@@H](CCCCN)C(=O)N(C)CC(=O)N[C@@H](CC(N)=O)C(=O)N[C@H](C(=O)N[C@@H](Cc1ccccc1)C(=O)N[C@H](C(=O)N[C@@H](CC(=O)O)C(=O)NCC(=O)N[C@@H](Cc1ccc(O)cc1)C(=O)N[C@@H](Cc1ccccc1)C(=O)N[C@@H](CCC(=O)O)C(=O)N[C@@H](CCCNC(=N)N)C(=O)N[C@@H](CC(C)C)C(=O)NC(C)(C)C(=O)N[C@@H](C)C(=O)N[C@@H](CCCCN)C(=O)N[C@@H](CC(C)C)C(N)=O)C(C)C)C(C)C [JBT1584]
- Plasma Stability (half life in minutes) human: >2 h

Compound: CC(=O)N[C@@H](Cc1ccccc1)C(=O)N[C@@H](CCC(N)=O)C(=O)N[C@@H](CO)C(=O)N[C@@H](CCCCN)C(=O)N1CCC[C@@H]1C(=O)N[C@@H](CC(N)=O)C(=O)N[C@H](C(=O)N[C@@H](Cc1cnc[nH]1)C(=O)N[C@H](C(=O)N[C@@H](CC(=O)O)C(=O)NCC(=O)N[C@@H](Cc1ccc(O)cc1)C(=O)N[C@@H](Cc1ccccc1)C(=O)N[C@@H](CCC(=O)O)C(=O)N[C@@H](CCCNC(=N)N)C(=O)N[C@@H](CC(C)C)C(=O)NC(C)(C)C(=O)N[C@@H](C)C(=O)N[C@@H](CCCCN)C(=O)N[C@@H](CC(C)C)C(N)=O)C(C)C)C(C)C [JBT1857]
- percentage of original amount of peptide remaining (human, plasma, 24 h): 27%
- coagulation parameters [1]: restored coagulation parameters in Hem A blood; also recorded: positively impacted blood coagulation parameters, but performed less efficiently than JBT1837
- remaining at 24 h (in vitro): 27%
- percentage of initial amount of peptide remaining in plasma [2]: < 10%
- percentage of initial amount of peptide remaining ([2]; plasma): Less than 5%

Compound: Ac-FQSKKAVFVFGYFERLRAKL-NH2 (SEQ ID NO: 288) [JBT0696]
- EC50 (TFPI [3]): 710 nM
- % Inhibition @ […] (TFPI [4]): 48%
- % Inhibition @ […] (TFPI [5]): 26%

Compound: Ac-FQSKaNVFVFGYFERLRAKL-NH2 (SEQ ID NO: 53) (Ac-FQSK[dA]NVFVFGYFERLRAKL-NH2; SMILES CC(=O)N[C@@H](Cc1ccccc1)C(=O)N[C@@H](CCC(N)=O)C(=O)N[C@@H](CO)C(=O)N[C@@H](CCCCN)C(=O)N[C@H](C)C(=O)N[C@@H](CC(N)=O)C(=O)N[C@H](C(=O)N[C@@H](Cc1ccccc1)C(=O)N[C@H](C(=O)N[C@@H](Cc1ccccc1)C(=O)NCC(=O)N[C@@H](Cc1ccc(O)cc1)C(=O)N[C@@H](Cc1ccccc1)C(=O)N[C@@H](CCC(=O)O)C(=O)N[C@@H](CCCNC(=N)N)C(=O)N[C@@H](CC(C)C)C(=O)N[C@@H](CCCNC(=N)N)C(=O)N[C@@H](C)C(=O)N[C@@H](CCCCN)C(=O)N[C@@H](CC(C)C)C(N)=O)C(C)C)C(C)C) [JBT0663]
- EC50 (TFPI [3]): 290 nM
- % Inhibition @ […] (TFPI [4]): 81%
- % Inhibition @ […] (TFPI [5]): 60%

Compound: Ac-FQSKaNVFVTGYFARLRAKL-NH2 (SEQ ID NO: 54) (Ac-FQSK[dA]NVFVTGYFARLRAKL-NH2; SMILES CC(=O)N[C@@H](Cc1ccccc1)C(=O)N[C@@H](CCC(N)=O)C(=O)N[C@@H](CO)C(=O)N[C@@H](CCCCN)C(=O)N[C@H](C)C(=O)N[C@@H](CC(N)=O)C(=O)N[C@H](C(=O)N[C@@H](Cc1ccccc1)C(=O)N[C@H](C(=O)N[C@H](C(=O)NCC(=O)N[C@@H](Cc1ccc(O)cc1)C(=O)N[C@@H](Cc1ccccc1)C(=O)N[C@@H](C)C(=O)N[C@@H](CCCNC(=N)N)C(=O)N[C@@H](CC(C)C)C(=O)N[C@@H](CCCNC(=N)N)C(=O)N[C@@H](C)C(=O)N[C@@H](CCCCN)C(=O)N[C@@H](CC(C)C)C(N)=O)[C@@H](C)O)C(C)C)C(C)C) [JBT0668]
- EC50 (TFPI [3]): 520 nM
- % Inhibition @ […] (TFPI [4]): 70%
- % Inhibition @ […] (TFPI [5]): 43%

Compound: Ac-FQSKp-Nmn-VHVDGYFERL-Aib-AKL-NH2 [JBT00002287]
- IC50 [6]: > 500 nM

Compound: Ac-FQSKpN-Chg-H-Chg-DGYFERL-Aib-AKL-NH2 [JBT00002295]
- IC50 [6]: > 5000 nM

Compound: Ac-FQSKpN-Phg-H-Phg-DGYFERL-Aib-AKL-NH2 [JBT00002298]
- IC50 [6]: > 5000 nM

Compound: Ac-SRYKWFCGMRDMKGTMSAVWVKF-NH2 (SEQ ID NO: 1160) [JBT0454]
- Extrinsic Tenase Inhibition assay | % Inhibition @ […] (TFPI [7]): 0%

Compound: Ac-SRYKWFGM[CRDMKGTMSC]VWVKF-NH2 (SEQ ID NO: 1233) (Ac-SRYKWFGMCRDMKGTMSCVWVKF-NH2; disulfide 9-18; SMILES CSCC[C@H](NC(=O)CNC(=O)[C@H](Cc1ccccc1)NC(=O)[C@H](Cc1c[nH]c2ccccc12)NC(=O)[C@H](CCCCN)NC(=O)[C@H](Cc1ccc(O)cc1)NC(=O)[C@H](CCCNC(=N)N)NC(=O)[C@H](CO)NC(C)=O)C(=O)N[C@H]1CSSC[C@@H](C(=O)N[C@H](C(=O)N[C@@H](Cc2c[nH]c3ccccc23)C(=O)N[C@H](C(=O)N[C@@H](CCCCN)C(=O)N[C@@H](Cc2ccccc2)C(N)=O)C(C)C)C(C)C)NC(=O)[C@H](CO)NC(=O)[C@H](CCSC)NC(=O)[C@H]([C@@H](C)O)NC(=O)CNC(=O)[C@H](CCCCN)NC(=O)[C@H](CCSC)NC(=O)[C@H](CC(=O)O)NC(=O)[C@H](CCCNC(=N)N)NC1=O) [JBT0462]
- Extrinsic Tenase Inhibition assay | % Inhibition @ […] (TFPI [7]): 0%

Compound: Ac-SRYKWF[CGMADMKGTMSC]VWVKF-NH2 (SEQ ID NO: 1079) (Ac-SRYKWFCGMADMKGTMSCVWVKF-NH2; disulfide 7-18; SMILES CSCC[C@@H]1NC(=O)CNC(=O)[C@@H](NC(=O)[C@H](Cc2ccccc2)NC(=O)[C@H](Cc2c[nH]c3ccccc23)NC(=O)[C@H](CCCCN)NC(=O)[C@H](Cc2ccc(O)cc2)NC(=O)[C@H](CCCNC(=N)N)NC(=O)[C@H](CO)NC(C)=O)CSSC[C@@H](C(=O)N[C@H](C(=O)N[C@@H](Cc2c[nH]c3ccccc23)C(=O)N[C@H](C(=O)N[C@@H](CCCCN)C(=O)N[C@@H](Cc2ccccc2)C(N)=O)C(C)C)C(C)C)NC(=O)[C@H](CO)NC(=O)[C@H](CCSC)NC(=O)[C@H]([C@@H](C)O)NC(=O)CNC(=O)[C@H](CCCCN)NC(=O)[C@H](CCSC)NC(=O)[C@H](CC(=O)O)NC(=O)[C@H](C)NC1=O) [JBT0446]
- Extrinsic Tenase Inhibition assay | % Inhibition @ […] (TFPI [7]): 46%
